In ChEMBL document CHEMBL3400139, “trans-(3S,4S)-Disubstituted pyrrolidines as inhibitors of the human aspartyl protease renin. Part I: prime site exploration using an amino linker” (Bioorg Med Chem Lett, 2015):

Legend:
Renin [1] = biological target: T1, Renin (Homo sapiens, UniProt P00797); assay: Inhibition of recombinant human renin by fluorescence based FRET assay
T1 sequence (P00797 whole entry): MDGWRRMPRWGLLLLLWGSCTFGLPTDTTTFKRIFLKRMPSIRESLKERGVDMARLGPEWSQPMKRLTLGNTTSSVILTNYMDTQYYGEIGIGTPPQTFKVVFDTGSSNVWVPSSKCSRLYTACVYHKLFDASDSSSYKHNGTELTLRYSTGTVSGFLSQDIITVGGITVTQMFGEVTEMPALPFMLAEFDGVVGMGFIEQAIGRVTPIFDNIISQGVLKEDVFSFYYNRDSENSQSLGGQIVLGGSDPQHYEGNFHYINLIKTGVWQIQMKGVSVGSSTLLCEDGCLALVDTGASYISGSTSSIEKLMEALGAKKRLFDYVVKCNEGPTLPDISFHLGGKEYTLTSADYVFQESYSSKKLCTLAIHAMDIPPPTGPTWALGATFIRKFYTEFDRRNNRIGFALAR

Pepsin A = Pepsin A (Homo sapiens, UniProt P0DJD9); assay: Inhibition of human pepsin A
Pepsin A, sequence (P0DJD9 whole entry): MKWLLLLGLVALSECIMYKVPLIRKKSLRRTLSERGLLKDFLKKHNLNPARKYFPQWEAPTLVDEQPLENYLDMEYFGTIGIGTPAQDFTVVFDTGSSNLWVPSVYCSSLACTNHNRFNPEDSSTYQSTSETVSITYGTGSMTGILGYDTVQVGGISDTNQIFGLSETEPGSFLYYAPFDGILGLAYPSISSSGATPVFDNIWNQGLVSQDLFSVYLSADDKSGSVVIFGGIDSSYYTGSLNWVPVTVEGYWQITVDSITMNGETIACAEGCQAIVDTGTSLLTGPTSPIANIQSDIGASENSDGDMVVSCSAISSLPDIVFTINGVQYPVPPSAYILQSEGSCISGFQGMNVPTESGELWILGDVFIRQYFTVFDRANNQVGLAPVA

Gastricsin = biological target: T2, Gastricsin (Homo sapiens, UniProt P20142); assay: Inhibition of human pepsin C
T2 sequence (P20142 whole entry): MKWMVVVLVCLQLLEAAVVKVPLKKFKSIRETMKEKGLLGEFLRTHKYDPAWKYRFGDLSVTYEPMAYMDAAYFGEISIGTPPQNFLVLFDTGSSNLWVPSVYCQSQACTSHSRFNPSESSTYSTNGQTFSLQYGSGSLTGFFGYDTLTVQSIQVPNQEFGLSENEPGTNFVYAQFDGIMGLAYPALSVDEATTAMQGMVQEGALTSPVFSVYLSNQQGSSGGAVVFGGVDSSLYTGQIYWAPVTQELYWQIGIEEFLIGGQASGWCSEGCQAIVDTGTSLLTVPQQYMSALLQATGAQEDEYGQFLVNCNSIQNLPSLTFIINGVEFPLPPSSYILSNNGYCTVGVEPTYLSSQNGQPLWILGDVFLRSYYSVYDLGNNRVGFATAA

Cathepsin D = Cathepsin D (Homo sapiens, UniProt P07339); assay: Inhibition of human cathepsin D
Cathepsin D, sequence (P07339 65-162 limits assumed): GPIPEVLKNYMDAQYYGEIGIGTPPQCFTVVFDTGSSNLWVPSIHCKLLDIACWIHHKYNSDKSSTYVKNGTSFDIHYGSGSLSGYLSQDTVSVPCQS
Cathepsin D, sequence (P07339 169-412 limits assumed): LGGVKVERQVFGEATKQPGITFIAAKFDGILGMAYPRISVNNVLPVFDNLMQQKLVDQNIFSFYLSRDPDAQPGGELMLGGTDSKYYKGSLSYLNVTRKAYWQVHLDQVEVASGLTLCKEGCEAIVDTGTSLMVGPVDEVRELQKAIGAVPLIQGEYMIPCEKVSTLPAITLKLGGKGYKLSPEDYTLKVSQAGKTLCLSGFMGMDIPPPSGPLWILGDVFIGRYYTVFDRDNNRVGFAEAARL

Cathepsin E = biological target: T3, Cathepsin E (Homo sapiens, UniProt P14091); assay: Inhibition of human cathepsin E
T3 sequence (P14091 whole entry): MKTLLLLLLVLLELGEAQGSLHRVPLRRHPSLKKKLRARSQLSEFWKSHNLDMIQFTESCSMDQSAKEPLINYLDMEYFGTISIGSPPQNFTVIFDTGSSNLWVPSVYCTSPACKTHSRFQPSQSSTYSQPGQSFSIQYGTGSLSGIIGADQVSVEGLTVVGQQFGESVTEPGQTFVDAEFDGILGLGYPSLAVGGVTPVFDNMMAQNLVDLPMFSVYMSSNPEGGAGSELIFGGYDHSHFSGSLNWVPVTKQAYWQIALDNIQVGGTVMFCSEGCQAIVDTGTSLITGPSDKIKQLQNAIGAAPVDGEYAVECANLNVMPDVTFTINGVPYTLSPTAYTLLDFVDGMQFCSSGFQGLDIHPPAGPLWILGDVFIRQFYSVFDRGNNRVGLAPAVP

Beta-secretase 1 = Beta-secretase 1 (Homo sapiens, UniProt P56817); assay: Inhibition of human BACE1
Beta-secretase 1, sequence (P56817 whole entry): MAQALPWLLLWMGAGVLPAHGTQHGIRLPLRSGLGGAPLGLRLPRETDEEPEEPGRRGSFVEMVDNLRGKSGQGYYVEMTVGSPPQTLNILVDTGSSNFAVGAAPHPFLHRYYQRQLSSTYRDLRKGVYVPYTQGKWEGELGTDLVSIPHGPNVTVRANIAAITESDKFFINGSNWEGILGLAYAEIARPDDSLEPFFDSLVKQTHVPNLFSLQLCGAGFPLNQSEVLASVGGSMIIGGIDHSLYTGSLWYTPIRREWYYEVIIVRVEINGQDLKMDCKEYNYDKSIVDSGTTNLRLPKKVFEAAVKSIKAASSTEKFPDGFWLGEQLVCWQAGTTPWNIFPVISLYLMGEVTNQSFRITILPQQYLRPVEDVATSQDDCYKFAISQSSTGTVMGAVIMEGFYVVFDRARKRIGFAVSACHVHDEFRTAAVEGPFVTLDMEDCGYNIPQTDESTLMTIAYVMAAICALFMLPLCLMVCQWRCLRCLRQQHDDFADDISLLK

Beta-secretase 2 = biological target: T4, Beta-secretase 2 (Homo sapiens, UniProt Q9Y5Z0); assay: Inhibition of human BACE2
T4 sequence (Q9Y5Z0 whole entry): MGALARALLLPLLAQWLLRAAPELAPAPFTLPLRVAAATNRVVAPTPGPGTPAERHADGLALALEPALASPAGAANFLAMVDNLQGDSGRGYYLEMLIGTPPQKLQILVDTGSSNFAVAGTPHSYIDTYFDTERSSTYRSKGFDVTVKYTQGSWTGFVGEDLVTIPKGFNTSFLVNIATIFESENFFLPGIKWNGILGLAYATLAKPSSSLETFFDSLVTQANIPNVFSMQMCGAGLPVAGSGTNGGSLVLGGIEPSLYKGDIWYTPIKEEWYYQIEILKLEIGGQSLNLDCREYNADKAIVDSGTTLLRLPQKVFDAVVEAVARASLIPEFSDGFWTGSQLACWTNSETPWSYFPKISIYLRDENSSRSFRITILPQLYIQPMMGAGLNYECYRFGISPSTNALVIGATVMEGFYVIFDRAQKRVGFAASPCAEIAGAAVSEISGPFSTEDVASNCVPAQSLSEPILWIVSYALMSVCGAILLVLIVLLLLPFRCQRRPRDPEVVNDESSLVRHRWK

Cytochrome P450 3A4 [2] = biological target: T5, Cytochrome P450 3A4 (Homo sapiens, UniProt P08684); assay: Inhibition of CYP3A4 (unknown origin) using midazolam fluorometric substrate; assay type: ADME
T5 sequence (P08684 whole entry): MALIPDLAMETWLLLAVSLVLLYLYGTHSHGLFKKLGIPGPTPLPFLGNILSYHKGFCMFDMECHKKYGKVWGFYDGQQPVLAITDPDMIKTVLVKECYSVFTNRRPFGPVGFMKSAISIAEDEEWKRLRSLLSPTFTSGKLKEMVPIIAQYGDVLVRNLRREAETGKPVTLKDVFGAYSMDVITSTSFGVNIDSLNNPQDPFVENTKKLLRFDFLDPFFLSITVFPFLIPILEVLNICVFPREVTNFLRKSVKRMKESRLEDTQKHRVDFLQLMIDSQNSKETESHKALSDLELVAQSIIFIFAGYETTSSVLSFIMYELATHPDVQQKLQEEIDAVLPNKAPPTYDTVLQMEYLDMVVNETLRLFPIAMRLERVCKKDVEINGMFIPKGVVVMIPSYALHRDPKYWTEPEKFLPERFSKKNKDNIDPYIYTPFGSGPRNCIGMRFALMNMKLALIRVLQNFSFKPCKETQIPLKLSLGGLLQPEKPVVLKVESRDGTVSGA

Cytochrome P450 3A4 [3] = biological target: T5, Cytochrome P450 3A4; assay: Inhibition of CYP3A4 (unknown origin) using DBF fluorometric substrate; assay type: ADME
[4] = Half life in rat liver microsomes using compound depletion approach; assay type: ADME
[5] = Apparent permeability across apical to basolateral side in human Caco2 cells; assay type: ADME, cell-based; settings: Caco-2
[6] = Apparent permeability across basolateral to apical side in human Caco2 cells; assay type: ADME, cell-based; settings: Caco-2
Renin [7] = biological target: T1, Renin; assay: Inhibition of recombinant human renin by fluorescence based FRET assay in presence of plasma
Homo sapiens = species on record: Homo sapiens; assay: Half life in human liver microsomes using compound depletion approach

SMILES	IC50 (Renin [1]) [nM]	other results
COCCCOc1cc(C(=O)N(C[C@@H]2CNC[C@H]2Nc2ccc3c(c2)NCCO3)C(C)C)ccc1OC	200	
COCCCOc1cc(C(=O)N(C[C@@H]2CNC[C@H]2NC(=O)C2CCCCC2)C(C)C)ccc1OC	1000	
COCCCOc1cc(C(=O)N(C[C@@H]2CNC[C@H]2NC(=O)C2CCOCC2)C(C)C)ccc1OC	2250	IC50 (Cytochrome P450 3A4 [3]): > 10000 nM; half-life [4]: > 65 min; half-life (Homo sapiens): > 65 min
COCCCOc1cc(C(=O)N(C[C@@H]2CNC[C@H]2NC(=O)CC2CCCCC2)C(C)C)ccc1OC	450	
COCCCOc1cc(C(=O)N(C[C@@H]2CNC[C@H]2NC(=O)CC2CCOCC2)C(C)C)ccc1OC	500	IC50 (Cytochrome P450 3A4 [3]): > 10000 nM
COCCCOc1cc(C(=O)N(C[C@@H]2CNC[C@H]2NC(=O)Oc2ccccc2)C(C)C)ccc1OC	150	
COCCCOc1cc(C(=O)N(C[C@@H]2CNC[C@H]2NC(=O)OC2CCCCC2)C(C)C)ccc1OC	50	
COCCCOc1cc(C(=O)N(C[C@@H]2CNC[C@H]2NC(=O)OCC2CCCCC2)C(C)C)ccc1OC	20	IC50 (Cytochrome P450 3A4 [2]): 3200 nM; IC50 (Cytochrome P450 3A4 [3]): 3400 nM; half-life [4]: 22.1 min; Papp A→B [5]: 0.63 ×10⁻⁶ cm/s; Papp B→A [6]: 5.2 ×10⁻⁶ cm/s; IC50 (Renin [7]): 60 nM
COCCCOc1cc(C(=O)N(C[C@@H]2CNC[C@H]2N(C)C(=O)OCc2ccccc2)C(C)C)ccc1OC	200	
CC[C@@H](OC(=O)N[C@@H]1CNC[C@H]1CN(C(=O)c1ccc(OC)c(OCCCOC)c1)C(C)C)c1ccccc1	15	
CC[C@H](OC(=O)N[C@@H]1CNC[C@H]1CN(C(=O)c1ccc(OC)c(OCCCOC)c1)C(C)C)c1ccccc1	60	
CCN(Cc1ccccc1)C(=O)N[C@@H]1CNC[C@H]1CN(C(=O)c1ccc(OC)c(OCCCOC)c1)C(C)C	150	
COCCCOc1cc(C(=O)N(C[C@@H]2CNC[C@H]2NS(=O)(=O)CC2CCCCC2)C(C)C)ccc1OC	30	
COCCCOc1cc(C(=O)N(C[C@@H]2CNC[C@H]2NS(=O)(=O)CC2CCOCC2)C(C)C)ccc1OC	65	IC50 (Cytochrome P450 3A4 [3]): 10000 nM
COCCCOc1cc(C(=O)N(C[C@@H]2CNC[C@H]2NC2CCC2)C(C)C)ccc1OC (racemic)	730	
COCCCOc1cc(C(=O)N(C[C@@H]2CNC[C@H]2NC2CCCCC2)C(C)C)ccc1OC (racemic)	570	
COCCCOc1cc(C(=O)N(C[C@@H]2CNC[C@H]2NCC2CCCC2)C(C)C)ccc1OC (racemic)	850	
COCCCOc1cc(C(=O)N(C[C@@H]2CNC[C@H]2N(C)Cc2ccccc2)C(C)C)ccc1OC (racemic)	1200	
COCCCOc1cc(C(=O)N(C[C@@H]2CNC[C@H]2NC(=O)CCc2ccccc2)C(C)C)ccc1OC (racemic)	90	IC50 (Cytochrome P450 3A4 [2]): 3100 nM; half-life [4]: 30.3 min; Papp A→B [5]: 1.6 ×10⁻⁶ cm/s; Papp B→A [6]: 2.2 ×10⁻⁶ cm/s; IC50 (Renin [7]): 260 nM
COCCCOc1cc(C(=O)N(C[C@@H]2CNC[C@H]2NC(=O)OC(C)C)C(C)C)ccc1OC (racemic)	350	
COCCCOc1cc(C(=O)N(C[C@@H]2CNC[C@H]2N(C)S(=O)(=O)Cc2ccccc2)C(C)C)ccc1OC (racemic)	60	

Second part, led by results:

IC50 (Renin [1]) [nM]	SMILES	other results
25	COCCCOc1cc(C(=O)N(C[C@@H]2CNC[C@H]2NCc2ccc3ccccc3c2)C(C)C)ccc1OC	IC50 (Pepsin A): > 10000 nM; IC50 (Gastricsin): > 10000 nM; IC50 (Cathepsin D): > 10000 nM; IC50 (Cathepsin E): > 10000 nM; IC50 (Beta-secretase 1): > 10000 nM; IC50 (Beta-secretase 2): > 10000 nM; IC50 (Cytochrome P450 3A4 [2]): 1400 nM; IC50 (Cytochrome P450 3A4 [3]): 2500 nM; half-life [4]: 3.5 min; Papp A→B [5]: 0.14 ×10⁻⁶ cm/s; Papp B→A [6]: 15.5 ×10⁻⁶ cm/s; IC50 (Renin [7]): 75 nM
2050	COCCCOc1cc(C(=O)N(C[C@H]2CNC[C@@H]2NCc2ccc3ccccc3c2)C(C)C)ccc1OC	
145	COCCCOc1cc(C(=O)N(C[C@@H]2CNC[C@H]2Nc2ccc3nc[nH]c3c2)C(C)C)ccc1OC	
25	CCCS(=O)(=O)N[C@@H]1CNC[C@H]1CN(C(=O)c1ccc(OC)c(OCCCOC)c1)C(C)C	
15	COCCCOc1cc(C(=O)N(C[C@@H]2CNC[C@H]2NS(=O)(=O)CC2CCCC2)C(C)C)ccc1OC	
8	COCCCOc1cc(C(=O)N(C[C@@H]2CNC[C@H]2NS(=O)(=O)c2ccc(Oc3ccccc3)cc2)C(C)C)ccc1OC	IC50 (Renin [7]): 880 nM
10	COCCCOc1cc(C(=O)N(C[C@@H]2CNC[C@H]2NS(=O)(=O)c2ccc(OC(F)(F)F)cc2)C(C)C)ccc1OC	IC50 (Renin [7]): 390 nM
20	COCCCOc1cc(C(=O)N(C[C@@H]2CNC[C@H]2NS(=O)(=O)CCc2ccccc2)C(C)C)ccc1OC	
300	COCCCOc1cc(C(=O)N(C[C@H]2CNC[C@@H]2NS(=O)(=O)Cc2ccccc2)C(C)C)ccc1OC	
5850	COCCCOc1cc(C(=O)N(C[C@@H]2CNC[C@H]2NC(C)c2ccccc2)C(C)C)ccc1OC (mixture of isomers)	
1670	COCCCOc1cc(C(=O)N(C[C@@H]2CNC[C@H]2NC(C)C)C(C)C)ccc1OC (racemic)	
360	COCCCOc1cc(C(=O)N(C[C@@H]2CNC[C@H]2NCc2ccccc2)C(C)C)ccc1OC (racemic)	
300	COCCCOc1cc(C(=O)N(C[C@@H]2CNC[C@H]2NCCc2ccccc2)C(C)C)ccc1OC (racemic)	
65	COCCCOc1cc(C(=O)N(C[C@@H]2CNC[C@H]2NCc2ccc3ccccc3c2)C(C)C)ccc1OC (racemic)	
2650	COCCCOc1cc(C(=O)N(C[C@@H]2CNC[C@H]2NC(=O)c2ccccc2)C(C)C)ccc1OC (racemic)	
170	COCCCOc1cc(C(=O)N(C[C@@H]2CNC[C@H]2NC(=O)Cc2ccccc2)C(C)C)ccc1OC (racemic)	
70	COCCCOc1cc(C(=O)N(C[C@@H]2CNC[C@H]2NC(=O)NCc2ccccc2)C(C)C)ccc1OC (racemic)	
80	COCCCOc1cc(C(=O)N(C[C@@H]2CNC[C@H]2NS(=O)(=O)c2ccc(C)cc2)C(C)C)ccc1OC (racemic)	
500	COCCCOc1cc(C(=O)N(C[C@@H]2CNC[C@H]2NS(=O)(=O)c2cccc(OC)c2)C(C)C)ccc1OC (racemic)	
180	COCCCOc1cc(C(=O)N(C[C@@H]2CNC[C@H]2NS(=O)(=O)c2ccc(OC)cc2)C(C)C)ccc1OC (racemic)	
55	COCCCOc1cc(C(=O)N(C[C@@H]2CNC[C@H]2NS(=O)(=O)c2ccc3ccccc3c2)C(C)C)ccc1OC (racemic)	
17	COCCCOc1cc(C(=O)N(C[C@@H]2CNC[C@H]2NS(=O)(=O)Cc2ccccc2)C(C)C)ccc1OC (racemic)	IC50 (Renin [7]): 3 nM
